Measurements reported in patent publication US6251949A, “Oxime derivatives, hydrazone derivatives and use thereof” (Shionogi & Co., Ltd., priority 1996, dated 2001).

How the values were obtained:
Format in all cases: in vivo
Pyricularia oryzae = conditions: rice seedling, 6 days after inoculation
tachykinin receptor [1] = target: T1, tachykinin receptor (Cavia porcellus, UniProt P30547); assay: Tachykinin receptor antagonistic effect: capsaicin-induced increase in blood vessel permeability, trachea; conditions: guinea pig, iv, read-out: ED50 Guinea pig trachea
T1 construct: from tissue; host or cells: guinea pig trachea, in vivo
Protocol: (§1) The tachykinin receptor antagonistic effect of a compound according to the present invention was investigated by the method described below.
(§2) [Effect of compound on capsaicin-induced increase in blood vessel permeability]
(§3) 5 Minutes after giving Evans Blue (30 mg/kg, i.v.) to a guinea pig anesthetized with pentobarbital (30 mg/kg, i.p.), a test compound dissolved in […] was injected intravenously. After further 5 minutes, capsaicin (0.15 mg/kg, i.v.) was given to induce the plasma transudation. 5 Minutes after administration of capsaicin, the guinea pig was sacrificed to isolate the trachea and the urinary bladder. After extraction with formamide for 24 hours, the dye content in each tissue was quantified on the basis of the absorbance at 620 nm, and the amount of the dye transudated into the tissue was calculated from the calibration curve.
(§4) By the method described above, the amount of the compound required to obtain 50% suppression (ED50) was determined and represented in units (mg/kg).

tachykinin receptor [2] = target: T1, tachykinin receptor; assay: Tachykinin receptor antagonistic effect: capsaicin-induced increase in blood vessel permeability, urinary bladder; conditions: guinea pig, iv, read-out: ED50 Guinea pig urinary bladder
Protocol: as §1, §2, §3, §4

T1 sequence (P30547 whole entry): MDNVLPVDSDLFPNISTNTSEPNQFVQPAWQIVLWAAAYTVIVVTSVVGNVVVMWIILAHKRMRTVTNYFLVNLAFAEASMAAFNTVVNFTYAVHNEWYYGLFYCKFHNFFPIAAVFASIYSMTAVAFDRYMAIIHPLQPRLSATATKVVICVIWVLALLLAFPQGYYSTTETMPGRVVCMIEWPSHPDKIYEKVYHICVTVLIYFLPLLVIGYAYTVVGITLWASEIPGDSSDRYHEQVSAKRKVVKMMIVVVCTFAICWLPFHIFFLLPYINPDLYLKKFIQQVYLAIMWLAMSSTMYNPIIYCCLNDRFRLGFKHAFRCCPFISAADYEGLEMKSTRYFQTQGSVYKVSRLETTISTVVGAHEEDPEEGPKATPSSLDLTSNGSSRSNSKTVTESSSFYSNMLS

Row | SMILES | Controlling effect on rice blight (Pyricularia oryzae) by foliage application at 500 ppm (% control) (Pyricularia oryzae) | ED50 (tachykinin receptor [1]) | ED50 (tachykinin receptor [2])
1 | CON=C(C)C(=NOCc1ccccc1Cl)C(=O)N(C)C [Compound C-11] | 90% | – | –
2 | C=CCON=C(C)C(=NOCc1ccccc1Cl)C(=O)N(C)C [Compound C-86] | 90% | – | –
3 | C=CCON=C(C)C(=NOCc1ccc(OC)cc1Cl)C(=O)N(C)C [Compound C-95] | 90% | – | –
4 | C=CCON=C(C)C(=NOCc1ccc(Cl)c(Cl)c1)C(=O)N(C)C [Compound C-96] | 90% | – | –
5 | CON=C(C)C(=NOCc1ccccc1Cl)C(=O)N1CCC(NC(C)=O)CC1 [Compound M-11] | – | 0.024 mg/kg | –
6 | C=CCON=C(C)C(=NOCc1ccccc1Cl)C(=O)N1CCC(NC(C)=O)CC1 [Compound M-86] | – | 0.085 mg/kg | –
7 | C=CCON=C(C)C(=NOCc1ccc(Cl)c(Cl)c1)C(=O)N1CCOCC1 [Compound W-96] | – | 0.04 mg/kg | –
8 | CON=C(C(=O)N1CCOCC1)C(C)=NOCc1ccccc1 [Compound W-176] | – | 0.145 mg/kg | 0.075 mg/kg
9 | CON=C(C(=O)N1CCN(C)CC1)C(C)=NOCc1ccccc1Cl [Compound b-251] | – | 0.017 mg/kg | 0.017 mg/kg
10 | O=C1OCc2c(Cl)c(Cl)c(Cl)c(Cl)c21 [Fthalide, reference compound] | 97% | – | –
11 | C=CCON=C(C(=O)N1CCN(C)CC1)C(C)=NOCc1ccccc1 [b-180] | – | 0.054 mg/kg | 0.087 mg/kg
